Test: Measurement of solubility in capric/caprylic triglyceride
Format: physicochemical
Details: commercial triazine derivatives, state-of-the-art comparison

Row | solubility in the cosmetic oil capric/caprylic triglyceride [%] | Structure (SMILES)
1 | 3 | CCCCC(CC)COC(=O)c1ccc(Nc2nc(Nc3ccc(C(=O)OCC(CC)CCCC)cc3)nc(Nc3ccc(C(=O)OCC(CC)CCCC)cc3)n2)cc1 (centres unmarked) [EHT, Ethylhexyl Triazone]
2 | 6 | CCCCC(CC)COc1ccc(-c2nc(-c3ccc(OC)cc3)nc(-c3ccc(OCC(CC)CCCC)cc3O)n2)c(O)c1 (centres unmarked) [Tinosorb S]

Source: patent US8585782B2, “Use of specific bis(biphenyl)triazine derivatives and mixtures thereof as UV absorbers” (BASF SE, priority 2010, dated 2013)
